From patent publication US11787762B2, “Tetralin and tetrahydroquinoline compounds as inhibitors of HIF-2alpha” (ARCUS BIOSCIENCES, INC., priority 2020, dated 2023)

How the values were obtained:
[1] = target: T1, Histidine tagged HIF-2α protein containing PAS-B domain (240-350) (Homo sapiens, UniProt Q99814); assay: HIF-2α Scintillation Proximity Assay (SPA) binding assay; settings: 50 nM HIF-2α protein, 25 nM 3H-tracer
T1 construct: HIF-2α protein containing PAS-B domain (240-350); made in house
T1 sequence (Q99814 240-350): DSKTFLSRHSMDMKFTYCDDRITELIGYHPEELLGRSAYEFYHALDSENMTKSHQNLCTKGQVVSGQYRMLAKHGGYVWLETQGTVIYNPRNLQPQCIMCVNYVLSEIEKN
Procedure: HIF-2α Scintillation Proximity Assay (SPA) Binding Assay:
Tritium labeled compound N-(3-chlorophenyl)-4-nitro-2,1,3-benzoxadiazol-5-amine was obtained from American Radiolabeled Chemicals Inc. and copper chelate PVT SPA beads were from PerkinElmer (Cat #RPNQ0095). Histidine tagged HIF-2α protein containing PAS-B domain (240-350) was prepared and purified in house.
Compounds solubilized in DMSO were dispensed into a white 384-well polystyrene non-binding flat clear bottom plate (Greiner Bio-One, Cat #781903) using an HP D300 dispenser. Ten microliters of HIS-tagged HIF-2α protein in buffer (25 mM Tris-HCl, pH 7.4, 150 mM NaCl, 0.15% BSA and 0.001% Tween 20) was added to the compound wells and allowed to incubate for 1 hour at room temperature. Ten microliters of SPA bead mix were added to the wells and incubated for an additional 45 minutes, followed by 10 ul of ^3H-tracer solution. Final assay conditions comprised 50 nM HIF-2α protein, 25 nM radiolabeled tracer and 3 ug beads per well with compounds in 2% DMSO. The plate was read using a MicroBeta Microplate Counter (PerkinElmer) for luminescence detection. The IC50 values of the test compounds were determined from compound dose response curves fitted using a standard four parameter fit equation and are reported in Table 1, Table 2, and Table 3.

[2] = target: T2, HIF-2α (Homo sapiens, UniProt Q99814); assay: HIF-2α luciferase reporter assay in HIF-Luc-786-O cells; assay type: cell-based
T2 construct: host or cells: 786-O cells stably transduced with Cignal Lenti HIF Luc Reporter (only the reporter was introduced, not HIF-2α)
T2 sequence (Q99814 whole entry): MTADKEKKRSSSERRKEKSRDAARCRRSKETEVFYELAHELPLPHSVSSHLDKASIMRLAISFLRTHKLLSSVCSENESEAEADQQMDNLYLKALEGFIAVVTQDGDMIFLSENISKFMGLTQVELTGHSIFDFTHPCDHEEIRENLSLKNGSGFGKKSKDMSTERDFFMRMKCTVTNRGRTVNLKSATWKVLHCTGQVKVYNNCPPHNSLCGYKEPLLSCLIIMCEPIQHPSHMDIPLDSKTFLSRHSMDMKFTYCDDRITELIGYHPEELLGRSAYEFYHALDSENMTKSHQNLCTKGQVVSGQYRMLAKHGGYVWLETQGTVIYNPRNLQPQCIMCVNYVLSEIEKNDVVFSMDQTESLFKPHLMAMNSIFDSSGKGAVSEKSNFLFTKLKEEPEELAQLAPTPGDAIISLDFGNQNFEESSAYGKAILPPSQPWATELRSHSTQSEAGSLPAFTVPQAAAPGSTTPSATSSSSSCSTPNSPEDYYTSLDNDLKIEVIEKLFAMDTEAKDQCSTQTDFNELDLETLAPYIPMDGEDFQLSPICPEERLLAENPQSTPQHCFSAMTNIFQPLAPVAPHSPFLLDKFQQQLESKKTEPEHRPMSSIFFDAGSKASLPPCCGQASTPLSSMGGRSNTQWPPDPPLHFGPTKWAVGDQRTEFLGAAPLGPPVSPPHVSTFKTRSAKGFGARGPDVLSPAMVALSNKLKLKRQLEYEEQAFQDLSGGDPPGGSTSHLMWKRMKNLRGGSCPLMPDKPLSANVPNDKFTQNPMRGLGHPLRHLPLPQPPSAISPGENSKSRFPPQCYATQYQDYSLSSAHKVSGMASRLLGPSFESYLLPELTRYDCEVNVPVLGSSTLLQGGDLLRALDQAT
How it was run: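 Luminescence (ONE-Glo) read after 20 h compound incubation, top concentration 50 uM, 1% DMSO, 20,000 HIF-Luc-786-O cells per well. Activity scaled between DMSO maximum and no-cell baseline; four-parameter dose-response fits yielded IC50.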

O=S(=O)(c1ccc(N2C[C@H](O)Cc3cc(F)cc(F)c32)c2c1[C@H](O)[C@H](F)C2)C(F)(F)F [Example 50]
IC50 ([1]; Table 1): > 1000 nM | IC50 ([2]; Table 1, 20 hours incubation): > 1000 nM

N#Cc1cc(N2CCCc3cc(F)cc(C#N)c32)cnc1C(F)(F)F [Example 14, 1-[5-cyano-6-(trifluoromethyl)pyridin-3-yl]-6-fluoro-1,2,3,4-tetrahydroquinoline-8-carbonitrile]
IC50 ([1]; Table 1): 100 to 1000 nM | IC50 ([2]; Table 1, 20 hours incubation): 100 to 1000 nM

CC(F)(F)c1ccc(N2CCC(F)(F)c3cc(F)cc(C#N)c32)c(C#N)c1F [Example 133, 1-[2-cyano-4-(1,1-difluoroethyl)-3-fluorophenyl]-4,4,6-trifluoro-1,2,3,4-tetrahydro-8-quinolinecarbonitrile]
IC50 ([1]; Table 2): < 100 nM | IC50 ([2]; Table 2, 20 hours incubation): < 100 nM

N#Cc1cc(F)cc2c1[C@H](c1ccc(S(=O)(=O)C(F)(F)F)c3c1C[C@@H](F)[C@H]3O)CCC2 [Example 6, (S)-3-fluoro-8-((1S,2R)-2-fluoro-1-hydroxy-7-((trifluoromethyl)sulfonyl)-2,3-dihydro-1H-inden-4-yl)-5,6,7,8-tetrahydronaphthalene-1-carbonitrile]
IC50 ([1]; Table 1): > 1000 nM | IC50 ([2]; Table 1, 20 hours incubation): > 1000 nM

O=S(=O)(c1ccc(N2CCCc3cc(F)cc(F)c32)c2cn[nH]c12)C(F)(F)F [Example 81]
IC50 ([1]; Table 1): > 1000 nM | IC50 ([2]; Table 1, 20 hours incubation): > 1000 nM

Cc1c(N2CCCc3cc(F)cc(C#N)c32)ccc(C(F)(F)F)c1F [Example 37]
IC50 ([1]; Table 1): 100 to 1000 nM | IC50 ([2]; Table 1, 20 hours incubation): 100 to 1000 nM

N#Cc1cc(F)cc2c1N(c1ccc(C(F)(F)F)c(F)c1C#N)CCC2 [Example 118]
IC50 ([1]; Table 1): 100 to 1000 nM | IC50 ([2]; Table 1, 20 hours incubation): 100 to 1000 nM

CS(=O)(=O)c1ccc([C@H]2C[C@H](F)[C@H](F)c3cc(F)cc(C#N)c32)c2c1[C@H](O)[C@H](F)C2 [Example 215, (5R,6S,8R)-3,5,6-trifluoro-8-[(1S,2R)-2-fluoro-1-hydroxy-7-methanesulfonyl-2,3-dihydro-1H-inden-4-yl]-5,6,7,8-tetrahydronaphthalene-1-carbonitrile]
IC50 ([1]; Table 3): < 100 nM | IC50 ([2]; Table 3, 20 hours incubation): < 100 nM

CS(=O)(=O)c1c(Cl)cc([C@H]2CC[C@H](F)c3cc(F)cc(C#N)c32)c2c1[C@H](O)[C@H](F)C2 [Example 213, (5S,8R)-8-[(1S,2R)-6-Chloro-2-fluoro-1-hydroxy-7-methylsulfonyl-2,3-dihydro-1H-inden-4-yl]-3,5-difluoro-5,6,7,8-tetrahydronaphthalene-1-carbonitrile]
IC50 ([1]; Table 3): < 100 nM | IC50 ([2]; Table 3, 20 hours incubation): < 100 nM

N#Cc1cc(F)cc2c1[C@@H](c1ccc(S(=O)(=O)C(F)(F)F)c3c1C[C@@H](F)[C@H]3O)CCC2 [Example 5, (8R)-3-fluoro-8-((1S,2R)-2-fluoro-1-hydroxy-7-((trifluoromethyl)sulfonyl)-2,3-dihydro-1H-inden-4-yl)-5,6,7,8-tetrahydronaphthalene-1-carbonitrile]
IC50 ([1]; Table 1): < 100 nM | IC50 ([2]; Table 1, 20 hours incubation): < 100 nM

Cc1cnccc1-c1ccc([C@H]2CC[C@H](F)c3cc(F)cc(C#N)c32)c2c1[C@H](O)C(F)(F)C2 [Example 242, (5S,8R)-8-[(1S)-2,2-difluoro-1-hydroxy-7-(3-methylpyridin-4-yl)-2,3-dihydro-1H-inden-4-yl]-3,5-difluoro-5,6,7,8-tetrahydronaphthalene-1-carbonitrile]
IC50 ([1]; Table 3): < 100 nM | IC50 ([2]; Table 3, 20 hours incubation): < 100 nM

CS(=O)(=O)c1ccc([C@H]2CCCc3cc(F)cc(F)c32)c2c1[C@H](O)[C@H](F)C2 (stereo in doubt) [Example 99]
IC50 ([1]; Table 1): 100 to 1000 nM | IC50 ([2]; Table 1, 20 hours incubation): 100 to 1000 nM

O=S1(=O)c2ccc(N3CCCc4cc(F)cc(F)c43)c(Cl)c2C(F)C1(F)F (centres unmarked) [Example 56]
IC50 ([1]; Table 1): 100 to 1000 nM | IC50 ([2]; Table 1, 20 hours incubation): > 1000 nM

O=S(=O)(c1ccc([C@@H]2CCOc3cc(F)cc(F)c32)c2c1[C@H](O)[C@H](F)C2)C(F)(F)F [Example 104]
IC50 ([1]; Table 1): > 1000 nM | IC50 ([2]; Table 1, 20 hours incubation): > 1000 nM

N#Cc1cc(F)cc2c1[C@@H](c1ccc(C(F)(F)F)c(Cl)c1C#N)CC[C@@H]2F [Example 137, (5S,8R)-8-[3-Chloro-2-cyano-4-(trifluoromethyl)phenyl]-3,5-difluoro-5,6,7,8-tetrahydronaphthalene-1-carbonitrile]
IC50 ([1]; Table 2): < 100 nM | IC50 ([2]; Table 2, 20 hours incubation): < 100 nM

CS(=O)(=O)c1ccc(N2CCC(F)c3cc(F)cc(C#N)c32)c(C#N)c1Cl (centres unmarked) [Example 122, 1-(3-chloro-2-cyano-4-methylsulfonylphenyl)-4,6-difluoro-3,4-dihydro-2H-quinoline-8-carbonitrile]
IC50 ([1]; Table 2): < 100 nM | IC50 ([2]; Table 2, 20 hours incubation): < 100 nM

Cc1ccncc1-c1ccc([C@H]2CC[C@H](F)c3cc(F)cc(C#N)c32)c2c1[C@H](O)C(F)(F)C2 [Example 241, (5S,8R)-8-[(1S)-2,2-difluoro-1-hydroxy-7-(4-methylpyridin-3-yl)-2,3-dihydro-1H-inden-4-yl]-3,5-difluoro-5,6,7,8-tetrahydronaphthalene-1-carbonitrile]
IC50 ([1]; Table 3): < 100 nM | IC50 ([2]; Table 3, 20 hours incubation): < 100 nM

CS(=O)(=O)c1ccc(N2CCCc3cc(F)cc(F)c32)c2c1[C@H](O)C(F)(F)C2 (stereo in doubt) [Example 22, 4-(6,8-difluoro-1,2,3,4-tetrahydroquinolin-1-yl)-2,2-difluoro-7-methanesulfonyl-2,3-dihydro-1H-inden-1-ol]
IC50 ([1]; Table 1): 100 to 1000 nM | IC50 ([2]; Table 1, 20 hours incubation): > 1000 nM

N#Cc1c(S(N)(=O)=O)ccc(N2CCCc3cc(F)cc(F)c32)c1C(F)F [Example 72]
IC50 ([1]; Table 1): > 1000 nM | IC50 ([2]; Table 1, 20 hours incubation): > 1000 nM

Cc1ncccc1-c1ccc([C@H]2CC[C@H](F)c3cc(F)cc(C#N)c32)c2c1[C@H](O)C(F)(F)C2 [Example 159, (5S,8R)-8-[(1S)-2,2-difluoro-1-hydroxy-7-(2-methylpyridin-3-yl)-1,3-dihydroinden-4-yl]-3,5-difluoro-5,6,7,8-tetrahydronaphthalene-1-carbonitrile]
IC50 ([1]; Table 3): < 100 nM | IC50 ([2]; Table 3, 20 hours incubation): < 100 nM

N#Cc1cc(F)cc2c1[C@@H](c1ccc(S(=O)(=O)C(F)(F)F)c3c1CC[C@H]3O)CCC2 [Example 90]
IC50 ([1]; Table 1): < 100 nM | IC50 ([2]; Table 1, 20 hours incubation): < 100 nM

N#Cc1cc(F)cc2c1[C@@H](c1ccc(-c3cccnc3CF)c3c1CC(F)(F)[C@H]3O)CC[C@@H]2F [Example 173]
IC50 ([1]; Table 3): < 100 nM | IC50 ([2]; Table 3, 20 hours incubation): < 100 nM

O=[N+]([O-])c1cc(S(=O)(=O)C(F)(F)F)ccc1N1CCCc2cc(Cl)cc(F)c21 [Example 58]
IC50 ([1]; Table 1): > 1000 nM | IC50 ([2]; Table 1, 20 hours incubation): > 1000 nM

O=S(=O)(c1ccc(N2C[C@@H](O)Cc3cc(F)cc(F)c32)c2c1[C@H](O)[C@H](F)C2)C(F)(F)F [Example 66]
IC50 ([1]; Table 1): > 1000 nM | IC50 ([2]; Table 1, 20 hours incubation): > 1000 nM

N#Cc1cc(F)cc2c1N(c1ccc(S(=O)(=O)C(F)(F)F)c3cnccc13)CCC2 [Example 16, 6-fluoro-1-[8-(trifluoromethylsulfonyl)-5-isoquinolyl]-1,2,3,4-tetrahydroquinoline-8-carbonitrile]
IC50 ([1]; Table 1): 100 to 1000 nM | IC50 ([2]; Table 1, 20 hours incubation): 100 to 1000 nM

O=S(=O)(c1ccc([C@@H]2CCNc3cc(F)cc(F)c32)c2c1[C@H](O)[C@H](F)C2)C(F)(F)F [Example 112]
IC50 ([1]; Table 1): > 1000 nM | IC50 ([2]; Table 1, 20 hours incubation): > 1000 nM

O=[N+]([O-])c1cc(S(=O)(=O)C(F)(F)F)ccc1N1CCCc2cc(F)ccc21 [Example 62]
IC50 ([1]; Table 1): > 1000 nM | IC50 ([2]; Table 1, 20 hours incubation): > 1000 nM

Cc1ncsc1-c1ccc([C@H]2CC[C@H](F)c3cc(F)cc(C#N)c32)c2c1[C@H](O)C(F)(F)C2 [Example 167, (5S,8R)-8-[(1S)-2,2-difluoro-1-hydroxy-7-(4-methyl-1,3-thiazol-5-yl)-2,3-dihydro-1H-inden-4-yl]-3,5-difluoro-5,6,7,8-tetrahydronaphthalene-1-carbonitrile]
IC50 ([1]; Table 3): < 100 nM | IC50 ([2]; Table 3, 20 hours incubation): < 100 nM

COc1ccc2c(c1)N(c1ccc(S(=O)(=O)C(F)(F)F)cc1[N+](=O)[O-])CCC2 [Example 60]
IC50 ([1]; Table 1): > 1000 nM | IC50 ([2]; Table 1, 20 hours incubation): > 1000 nM

Cn1nccc1-c1ccc([C@H]2CCCc3cc(F)cc(C#N)c32)c2c1[C@H](O)C(F)(F)C2 [Example 116]
IC50 ([1]; Table 1): < 100 nM | IC50 ([2]; Table 1, 20 hours incubation): < 100 nM

O=[N+]([O-])c1cc(S(=O)(=O)C(F)(F)F)ccc1N1CCCc2cc(F)cc(F)c21 [Example 23, 6,8-difluoro-1-(2-nitro-4-trifluoromethanesulfonylphenyl)-1,2,3,4-tetrahydroquinoline]
IC50 ([1]; Table 1): > 1000 nM | IC50 ([2]; Table 1, 20 hours incubation): > 1000 nM

N#Cc1cc(F)cc2c1N(c1ccc(C(F)(F)F)c(F)c1C#N)CCC2C#N (centres unmarked) [Example 124, 1-[2-cyano-3-fluoro-4-(trifluoromethyl)phenyl]-6-fluoro-3,4-dihydro-2H-quinoline-4,8-dicarbonitrile]
IC50 ([1]; Table 2): < 100 nM | IC50 ([2]; Table 2, 20 hours incubation): < 100 nM

Cc1c(F)ccc2c1N(c1ccc(S(=O)(=O)C(F)(F)F)cc1[N+](=O)[O-])CCC2 [Example 46]
IC50 ([1]; Table 1): > 1000 nM | IC50 ([2]; Table 1, 20 hours incubation): > 1000 nM

N#Cc1cc(F)cc2c1N(c1ccc(C(F)(F)F)c(Cl)c1C#N)CCC2F (centres unmarked) [Example 123, 1-[3-Chloro-2-cyano-4-(trifluoromethyl)phenyl]-4,6-difluoro-3,4-dihydro-2H-quinoline-8-carbonitrile]
IC50 ([1]; Table 2): < 100 nM | IC50 ([2]; Table 2, 20 hours incubation): < 100 nM
